Laboratory results as given in US20230248797A1, “Method for preparing medicine with Chinese yam protein extract for treating erectile dysfunction” (priority 2020, published 2023).

How the values were obtained:
TM3 cells = assay: CCK8 cell viability of H2O2 damaged TM3 cells; assay type: cell-based, mouse; details: inhibitor pretreated 1 h, then 62.5 μg/mL CYCSE 24 h, 0.4 mM H2O2 2 h
Method: TM3 cells: purchased from Shanghai Cell Bank of the Chinese Academy of Sciences. The culture conditions are DMEM/F12+5% horse serum+2.5% fetal bovine serum+1% penicillin-streptomycin, 37° C., 5% CO2 incubator. TM3 cells were placed in a 96-well plate at a density of 3×10^4 cells/mL and divided into 6 groups: control group, H2O2 group, CYCSE group, ERK inhibitor ([…] group, AKT inhibitor ([…] group, and sildenafil group. After the two inhibitors were pretreated for 1 […] was added and processed for 24 h, and 0.4 mM H2O2 was added and processed for 2 h. After the two kinds of cells were treated separately, CCK8 was added and incubated at 37° C. for 1 h. A microplate reader was used to measure absorbance at 450 nm and calculate the cell viability.

[1] = system: ERK and AKT signal pathways in TM3 cells; assay: Western blot of p-ERK/ERK and p-AKT/AKT in TM3 cells; assay type: cell-based, mouse; details: H2O2 damaged TM3 cells
Method: TM3 cells: purchased from Shanghai Cell Bank of the Chinese Academy of Sciences. The culture conditions are DMEM/F12+5% horse serum+2.5% fetal bovine serum+1% penicillin-streptomycin, 37° C., 5% CO2 incubator. TM3 cells were placed in a 96-well plate at a density of 3×10^4 cells/mL and divided into 6 groups: control group, H2O2 group, CYCSE group, ERK inhibitor ([…] group, AKT inhibitor ([…] group, and sildenafil group. After the two inhibitors were pretreated for 1 […] was added and processed for 24 h, and 0.4 mM H2O2 was added and processed for 2 h. The TM3 cells or the MCECs were placed in 6-well plates, and the CYCSE was added to process for 24 h and 0.4 mM H2O2 to process for 2 h. The cells were collected and washed twice with PBS, wherein supernatant was discarded. The testicular tissue in liquid nitrogen was ground into powder. 200 μL of RIPM lysis solution (containing 1% PMSF) was added to each of the above samples to lyse on ice for 30 min and centrifuge at 12000 r for 10 min at 4° C., wherein supernatant was stored at -20° C. for later use. A BCA protein content detection kit was used to determine protein content in the samples and to adjust protein concentration to the same level. An equal volume of 2× loading buffer was added to an appropriate amount of the extracted protein sample, which was mixed well, boiled for 10 min, and stored at -20° C. […]

[2] = system: kidney-yang deficiency rats; assay: Body weight, organ weight and routine indicators in hydrocortisone-induced kidney-yang deficiency rat model; assay type: in vivo, SD rats; details: HCT 10 d + 4.4 mg/kg sildenafil 10 d
Method: SD rats were randomly divided into 5 groups with 10 rats in each group. The SD rats were fed with 25 mg/kg hydrocortisone (HCT) for 10 days to construct a kidney-yang deficiency model, and then gave different concentrations of the CYCSE for 10 days. Specific groups were as follows: control group (distilled water 20 d); kidney-yang deficiency group (HCT 10 d+distilled water 10 […] low-concentration group (HCT 10 d+60 mg/kg […] high-concentration group (HCT 10 d+80 mg/kg […]); sildenafil group (HCT 10 d+4.4 mg/kg sildenafil 10 d). After treatment, the rats were anesthetized by intraperitoneal injection of 3% sodium pentobarbital.

NO/cGMP signal pathway = assay: ELISA of iNOS and cGMP in kidney-yang deficiency rats; assay type: in vivo, SD rats; details: CYCSE 60, 80 mg/kg; sildenafil 4.4 mg/kg; vs model group
Method: SD rats were randomly divided into 5 groups with 10 rats in each group. The SD rats were fed with 25 mg/kg hydrocortisone (HCT) for 10 days to construct a kidney-yang deficiency model, and then gave different concentrations of the CYCSE for 10 days. Specific groups were as follows: control group (distilled water 20 d); kidney-yang deficiency group (HCT 10 d+distilled water 10 […] low-concentration group (HCT 10 d+60 mg/kg […] high-concentration group (HCT 10 d+80 mg/kg […]); sildenafil group (HCT 10 d+4.4 mg/kg sildenafil 10 d). After treatment, the rats were anesthetized by intraperitoneal injection of 3% sodium pentobarbital. After the animal was anesthetized, blood was taken from the celiac artery and spontaneously coagulated for 25 min, and centrifuged at 2500 rpm/min for 10 min at 4° C. Supernatant was collected, namely serum samples. Contents of inducible nitric oxide synthase (iNOS), cyclic guanosine phosphate (cGMP) and testosterone in serum were detected according to instructions of rat ELISA test kit (BPRO, Shanghai, China).

[3] = system: testis tissue of kidney-yang deficiency rats; assay: Testicular tissue morphology (HE staining) in kidney-yang deficiency rats; assay type: in vivo, SD rats; details: HCT 10 d + 4.4 mg/kg sildenafil 10 d
Method: (§1) SD rats were randomly divided into 5 groups with 10 rats in each group. The SD rats were fed with 25 mg/kg hydrocortisone (HCT) for 10 days to construct a kidney-yang deficiency model, and then gave different concentrations of the CYCSE for 10 days. Specific groups were as follows: control group (distilled water 20 d); kidney-yang deficiency group (HCT 10 d+distilled water 10 d); CYCSE low-concentration group (HCT 10 d+60 mg/kg CYCSE 10 d); CYCSE high-concentration group (HCT 10 d+80 mg/kg CYCSE 10 d); sildenafil group (HCT 10 d+4.4 mg/kg sildenafil 10 d). After treatment, the rats were anesthetized by intraperitoneal injection of 3% sodium pentobarbital.
(§2) Cavernosum tissue and testicular tissue were fixed in 4% paraformaldehyde, and then embedded in paraffin and sectioned. Testicular tissue sections were stained with hematoxylin-eosin method and Masson method respectively. Cavernosum tissue sections were stained with hematoxylin-eosin method. The testicular tissue sections were processed by immunohistochemistry, and testicular leydig cells were labeled with 3β-HSD antibody. A Nikon posture microscope was used to take photos.

testicular leydig cells = assay: Immunohistochemistry of testicular leydig cells (3β-HSD); assay type: in vivo, SD rats; set-up: key: negative (−); weakly positive (+); ranging from negative (−) to weakly positive (+) to strong positive (+++); strong positive (+++); details: HCT 10 d + 4.4 mg/kg sildenafil 10 d
Method: as §1, §2

[4] = system: sperm of kidney-yang deficiency rats; assay: Sperm count and vitality check; assay type: in vivo, SD rats; details: HCT 10 d + 4.4 mg/kg sildenafil 10 d
Method: SD rats were randomly divided into 5 groups with 10 rats in each group. The SD rats were fed with 25 mg/kg hydrocortisone (HCT) for 10 days to construct a kidney-yang deficiency model, and then gave different concentrations of the CYCSE for 10 days. Specific groups were as follows: control group (distilled water 20 d); kidney-yang deficiency group (HCT 10 d+distilled water 10 […] low-concentration group (HCT 10 d+60 mg/kg […] high-concentration group (HCT 10 d+80 mg/kg […]); sildenafil group (HCT 10 d+4.4 mg/kg sildenafil 10 d). After treatment, the rats were anesthetized by intraperitoneal injection of 3% sodium pentobarbital. At the end of administration, epididymis samples were collected, excess tissue was removed, and blood was washed away with saline. The samples were fixed with tweezers, so as to cut a tail side of the epididymis longitudinally. The sperm was released in a petri dish containing PBS, and a hemocytometer was used to detect number and viability of the sperm under a microscope after waiting at room temperature for 10 minutes (sperm viability is divided into 4 levels: a) move forward rapidly in a straight line, b) move forward slowly in a straight line, c) move locally, d) no move).

[5] = system: primary cavernous endothelial cells (MCECs); assay: CCK8 cell viability of H2O2 damaged MCECs; assay type: cell-based, C57BL/6 mice; details: CYCSE 31.3 and 62.5 μg/mL or sildenafil 24 h, then 0.4 mM H2O2 2 h; dose-dependent
Source text: Eight-week-old C57BL/6J mice were sacrificed by cutting necks. Lower abdomen was sterilized with alcohol cotton balls, a lower abdomen incision was made with tweezers and surgical scissors, and the abdominal fascia and foreskin glands were peeled off to expose cavernosum tissue. The cavernosum tissue was separated with surgical scissors and placed in Hank's balanced salt solution containing 10% penicillin-streptomycin, and urethra and neurovascular bundles were removed under microscope to obtain clean cavernosum tissue. The obtain tissue was washed 3 times in PSB containing 10% penicillin-streptomycin, cut into small pieces of 1-2 mm^3 with surgical scissors, and placed at bottoms of a pre-cooled 24-well plate with 2 pieces in each well. Each well was supplemented with 200 μL Matrigel containing 50 ng/mL VEGF-A. The MCECs were cultured in a simulated 3D environment to induce proliferation. Then the MCECs were incubate in a 37° C., 5% CO2 incubator for 14 days until the bottoms of the wells were full. After aspirating the medium, 200 μL Dispase was added to each well for digestion in the incubator for 1 h, and an equal volume of 10 mM EDTA was added to stop the digestion. […] A microplate reader was used to measure absorbance at 450 nm and calculate the cell viability.

[6] = system: mice with oligoasthenospermia induced by tripterygium glycosides; details: cited from earlier work

COc1cccc(-c2cc(=O)c3ccccc3o2)c1N [PD98059]
Effect of inhibitor on the protective effect of CYCSE on TM3 cell viability (TM3 cells): significantly block the protective effect | CYCSE-induced increase of p-ERK/ERK and p-AKT/AKT in TM3 cells with inhibitor [1]: significantly down-regulated

CCCc1nn(C)c2c(=O)[nH]c(-c3cc(S(=O)(=O)N4CCN(C)CC4)ccc3OCC)nc12 [Sildenafil]
Body weight [2]: 329.37 ± 10.82 g | Epididymal weight [2]: 0.85 ± 0.01 g | Testicular weight [2]: 3.03 ± 0.06 g | cGMP content (NO/cGMP signal pathway): no significant difference between the sildenafil group and the high concentration group | iNOS content (NO/cGMP signal pathway): no significant difference between the sildenafil group and the high concentration group | Diameter of seminiferous tubules [3]: 357.61 ± 8.03 μm | Germinal cell layer thickness [3]: 72.50 ± 5.47 μm | Immunoexpression of 3β-HSD (testicular leydig cells) (testicular leydig cells): + | Sperm number [4]: 4.63 ± 0.56^Δ *10^6/mL | Sperm motility a ([4]; grade a): 17.67 ± 2.05^Δ % | Sperm motility a + b ([4]; grades a + b): 37.67 ± 2.05^ΔΔ % | Cell viability of oxidation-damaged MCECs [5]: no salvage effect

C[C@@H]1CC[C@@]2(OC1)O[C@H]1C[C@H]3[C@@H]4CC=C5C[C@@H](O)CC[C@]5(C)[C@H]4CC[C@]3(C)[C@H]1[C@@H]2C [diosgenin]
Erectile latency [6]: shorten | MDA content in testicular tissues [6]: reduce | Organ coefficient of reproductive organs and immune organs [6]: improve | SOD activity in testicular tissues [6]: increase | Sperm quality [6]: improve
